Here are results for 1 compound from patent US20070031907A1, “Anaplastic lymphoma kinase assay, reagents and compositions thereof” (Istituto Nazionale Per Lo Studio E La Cura Dei Tumori, priority 2003, published 2007).

The assay has as its target T1, purified rALK (Homo sapiens, UniProt Q9UM73).
T1 construct: A portion of ALK, stretching from amino acids Leu^1073 to Ala^1459, has been cloned into the baculovirus transfer vector; made in house; host or cells: Sf9 (Spodoptera frugiperda) insect cells, baculovirus (pBlueBacHis2C, MaxBac 2.0)
The assay can be described thus: ELISA-based in vitro kinase assay. The assay is classed as biochemical. The procedure:
ELISA-based in vitro Kinase Assay A Nunc Immuno 96 well plate was incubated overnight at 37° C. with coating solution (125 μl/well) containing ALK peptide substrate (SEQ ID N. 1 or SEQ ID N. 2) at various concentrations in PBS. The wells were then washed with 200 μl of wash buffer (PBS-Tween 0.05%) and left to dry for at least 2 hours at 37° C. […] The reaction mix was then removed and wells were washed 5 times with 200 μl of wash buffer. Phosphorylated peptide was detected using 100 μl/well of a mouse monoclonal anti-phosphotyrosine antibody (clone 4G10 UpstateBiotech Ltd) diluted 1:500 in PBS+4% BSA. After 30 minutes incubation at room temperature the antibody was removed and wells were washed as described above. 100 μl of a secondary antibody (anti-mouse IgG, Horseradish Peroxidase linked whole antibody, from sheep, Amersham Pharmacia Biotech) diluted 1:1000 in PBS+4% BSA was added to each well and the plate was incubated again for 30 minutes at room temperature before washing as above. The plate was developed using 100 μl/well TMB Substrate Solution (Endogen) and the reaction was stopped by adding an equal volume of H2SO4 0.18 M. Finally, the absorbance was read at 450 or 490 nm using an Ultrospec® 300 spectrophotometer (Amersham-Pharmacia Biotech).
(In an ELISA, binding on a coated surface is turned into a signal by an enzyme label.)

T1 sequence (Q9UM73 1073-1459): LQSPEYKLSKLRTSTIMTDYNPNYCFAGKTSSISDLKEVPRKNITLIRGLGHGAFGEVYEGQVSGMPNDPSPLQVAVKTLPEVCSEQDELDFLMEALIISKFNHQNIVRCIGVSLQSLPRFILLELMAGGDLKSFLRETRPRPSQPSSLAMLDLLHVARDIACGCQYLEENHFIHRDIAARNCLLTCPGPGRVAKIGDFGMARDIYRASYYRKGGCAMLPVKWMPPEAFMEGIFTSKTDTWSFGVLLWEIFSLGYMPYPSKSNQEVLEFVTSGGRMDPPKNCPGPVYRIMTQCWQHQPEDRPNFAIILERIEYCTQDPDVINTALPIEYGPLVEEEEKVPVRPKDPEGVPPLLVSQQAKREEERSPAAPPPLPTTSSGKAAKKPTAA

On to `CN[C@@H]1C[C@H]2O[C@@](C)([C@@H]1OC)n1c3ccccc3c3c4c(c5c6ccccc6n2c5c31)C(=O)NC4` [Staurosporine], for which the “concentration reaching maximum inhibition of rALK activity” value (42 μM peptide substrate, 20 ng rALK, 30° C., 15 mins) was determined as 1 µM. Moreover, the “concentration at which effective as an ALK inhibitor” value (positive control for screening) is 0.2 to 0.3 µM.
